The assay has as its system TPM3-NTRK1-wt IC50 / primary target (e.g. CD74-ROS1-wt) IC50, Ba/F3 cells. In words: Cell assay TRKA selectivity (TRKA potency divided by primary target potency). It counts as cell-based. The note with it: for TPM3-NTRK1-wt/CD74-ROS1-G2032R: TRKA selectivity ratio: TPM3-NTRK1-wt IC50 / CD74-ROS1-G2032R IC50, Ba/F3 cells; for TPM3-NTRK1-wt/CD74-ROS1-wt: TRKA selectivity ratio: TPM3-NTRK1-wt IC50 / CD74-ROS1-wt IC50, Ba/F3 cells; for TPM3-NTRK1-wt/EML4-ALK-L1196M-G1202R: TRKA selectivity ratio: TPM3-NTRK1-wt IC50 / EML4-ALK-L1196M-G1202R IC50, Ba/F3 cells; for TPM3-NTRK1-wt/EML4-ALK-wt: TRKA selectivity ratio: TPM3-NTRK1-wt IC50 / EML4-ALK-wt IC50, Ba/F3 cells. Put shortly: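 Ratio of TRKA to primary-target cellular IC50 (e.g. TPM3-NTRK1-wt/CD74-ROS1-wt), grouped into bins A >30, B >10, C ≥1, D <1. Each IC50 came from engineered Ba/F3 fusion lines grown without IL-3, dosed for 72 h and read as CellTiter-Glo luminescence, with a four-parameter logistic fit.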

Structures are written as SMILES.

Turning to `CCn1nc(C(F)(F)F)c2c1-c1cnc(N)c(c1)O[C@H](C)c1cc(F)ccc1-c1nn(C)cc1C2` [Example 96, (19R)-3-ethyl-16-fluoro-10,19-dimethyl-5-(trifluoromethyl)-20-oxa-3,4,10,11,23-pentaazapentacyclo[19.3.1.0^2,^6.0^8,^12.0^13,^18]pentacosa-1(24),2(6),4,8,11,13,15,17,21(25),22-decaen-22-amine], the TPM3-NTRK1-wt/CD74-ROS1-G2032R entry was “A (bin A for very high selectivity, ratio>30-fold)”; the TPM3-NTRK1-wt/CD74-ROS1-wt result is on record as “A (bin A for very high selectivity, ratio>30-fold)”; the TPM3-NTRK1-wt/EML4-ALK-L1196M-G1202R entry is on record as “C (bin C for moderate selectivity, ratio≥1)”; the TPM3-NTRK1-wt/EML4-ALK-wt entry was “A (bin A for very high selectivity, ratio>30-fold)”.
For the compound `Cc1cc2n(n1)-c1ccc(F)cc1[C@@H](C)Oc1cc(cnc1N)-c1c(C#N)nn(C)c1C2` [Example 97, (19R)-22-amino-16-fluoro-5,10,19-trimethyl-20-oxa-4,5,11,12,23-pentaazapentacyclo[19.3.1.0^2,^6.0^8,^12.0^13,^18]pentacosa-1(24),2(6),3,8,10,13,15,17,21(25),22-decaene-3-carbonitrile], the TPM3-NTRK1-wt/CD74-ROS1-G2032R result was “A (bin A for very high selectivity, ratio>30-fold)”; the TPM3-NTRK1-wt/CD74-ROS1-wt result was “A (bin A for very high selectivity, ratio>30-fold)”; the TPM3-NTRK1-wt/EML4-ALK-L1196M-G1202R entry is given as “B (bin B for high selectivity, ratio>10-fold)”; the TPM3-NTRK1-wt/EML4-ALK-wt entry is recorded as “A (bin A for very high selectivity, ratio>30-fold)”.
On to `CCn1ncc2c1-c1cnc(N)c(c1)O[C@H](C)c1cc(F)ccc1-n1nc(OC)cc1C2` [Example 98, (19R)-3-ethyl-16-fluoro-10-methoxy-19-methyl-20-oxa-3,4,11,12,23-pentaazapentacyclo[19.3.1.0^2,^6.0^8,^12.0^13,^18]pentacosa-1(24),2(6),4,8,10,13,15,17,21(25),22-decaen-22-amine], for which the TPM3-NTRK1-wt/CD74-ROS1-G2032R result is “A (bin A for very high selectivity, ratio>30-fold)”; the TPM3-NTRK1-wt/CD74-ROS1-wt entry is reported as “A (bin A for very high selectivity, ratio>30-fold)”; the TPM3-NTRK1-wt/EML4-ALK-L1196M-G1202R entry is reported as “C (bin C for moderate selectivity, ratio≥1)”; the TPM3-NTRK1-wt/EML4-ALK-wt result is recorded as “B (bin B for high selectivity, ratio>10-fold)”.
Take `CCn1ncc2c1-c1cnc(N)c(c1)O[C@H](C)c1cc(F)ccc1-c1nocc1C2` [Example 99, (19R)-3-ethyl-16-fluoro-19-methyl-10,20-dioxa-3,4,11,23-tetraazapentacyclo[19.3.1.0^2,^6.0^8,^12.0^13,^18]pentacosa-1(24),2(6),4,8,11,13,15,17,21(25),22-decaen-22-amine]: the TPM3-NTRK1-wt/CD74-ROS1-G2032R entry was “A (bin A for very high selectivity, ratio>30-fold)”; the TPM3-NTRK1-wt/CD74-ROS1-wt entry is given as “A (bin A for very high selectivity, ratio>30-fold)”; the TPM3-NTRK1-wt/EML4-ALK-L1196M-G1202R result is recorded as “C (bin C for moderate selectivity, ratio≥1)”; the TPM3-NTRK1-wt/EML4-ALK-wt entry is given as “B (bin B for high selectivity, ratio>10-fold)”.
As for `C[C@H]1Oc2cc(cnc2N)-c2c(C#N)nn(C)c2Cc2cccnc2-c2ccc(F)cc21` [Example 100, (20R)-23-amino-17-fluoro-5,20-dimethyl-21-oxa-4,5,12,24-tetraazapentacyclo[20.3.1.0^2,^6.0^8,^13.0^14,^19]hexacosa-1(25),2(6),3,8(13),9,11,14,16,18,22(26),23-undecaene-3-carbonitrile], the TPM3-NTRK1-wt/CD74-ROS1-G2032R entry is on record as “A (bin A for very high selectivity, ratio>30-fold)”; the TPM3-NTRK1-wt/CD74-ROS1-wt entry is given as “A (bin A for very high selectivity, ratio>30-fold)”; the TPM3-NTRK1-wt/EML4-ALK-L1196M-G1202R entry is listed as “A (bin A for very high selectivity, ratio>30-fold)”; the TPM3-NTRK1-wt/EML4-ALK-wt entry is reported as “A (bin A for very high selectivity, ratio>30-fold)”.
With `Cn1nc(C#N)c2c1Cc1cccnc1-c1ccc(F)cc1COc1cc-2cnc1N` [Example 101, 23-amino-17-fluoro-5-methyl-21-oxa-4,5,12,24-tetraazapentacyclo[20.3.1.0^2,^6.0^8,^13.0^14,^19]hexacosa-1(25),2(6),3,8(13),9,11,14,16,18,22(26),23-undecaene-3-carbonitrile], the TPM3-NTRK1-wt/CD74-ROS1-G2032R entry was “A (bin A for very high selectivity, ratio>30-fold)”; the TPM3-NTRK1-wt/CD74-ROS1-wt entry was “A (bin A for very high selectivity, ratio>30-fold)”; the TPM3-NTRK1-wt/EML4-ALK-L1196M-G1202R result is given as “A (bin A for very high selectivity, ratio>30-fold)”; the TPM3-NTRK1-wt/EML4-ALK-wt result is listed as “A (bin A for very high selectivity, ratio>30-fold)”.
Turning to `CCn1ncc2c1-c1cnc(N)c(c1)O[C@H](C)c1cc(F)ccc1-n1nc(C(F)F)cc1C2` [Example 102, (19R)-10-(difluoromethyl)-3-ethyl-16-fluoro-19-methyl-20-oxa-3,4,11,12,23-pentaazapentacyclo[19.3.1.0^2,^6.0^8,^12.0^13,^18]pentacosa-1(24),2(6),4,8,10,13,15,17,21(25),22-decaen-22-amine], the TPM3-NTRK1-wt/CD74-ROS1-G2032R result was “A (bin A for very high selectivity, ratio>30-fold)”; the TPM3-NTRK1-wt/CD74-ROS1-wt result is “A (bin A for very high selectivity, ratio>30-fold)”; the TPM3-NTRK1-wt/EML4-ALK-L1196M-G1202R result is reported as “C (bin C for moderate selectivity, ratio≥1)”; the TPM3-NTRK1-wt/EML4-ALK-wt entry was “B (bin B for high selectivity, ratio>10-fold)”.
Consider `C[C@H]1Oc2cc(cnc2N)-c2c(C#N)nn(C)c2Cc2cc(Cl)nn2-c2ccc(F)cc21` [Example 103, (19R)-22-amino-10-chloro-16-fluoro-5,19-dimethyl-20-oxa-4,5,11,12,23-pentaazapentacyclo[19.3.1.0^2,^6.0^8,^12.0^13,^18]pentacosa-1(24),2(6),3,8,10,13,15,17,21(25),22-decaene-3-carbonitrile], for which the TPM3-NTRK1-wt/CD74-ROS1-G2032R entry is “A (bin A for very high selectivity, ratio>30-fold)”; the TPM3-NTRK1-wt/CD74-ROS1-wt entry is reported as “A (bin A for very high selectivity, ratio>30-fold)”; the TPM3-NTRK1-wt/EML4-ALK-L1196M-G1202R entry is reported as “B (bin B for high selectivity, ratio>10-fold)”; the TPM3-NTRK1-wt/EML4-ALK-wt entry is on record as “A (bin A for very high selectivity, ratio>30-fold)”.
Take `C[C@H]1Oc2cc(cnc2N)-c2c(C#N)nn(C)c2Cc2cc(C(F)(F)F)nn2-c2ccc(F)cc21` [Example 104, (19R)-22-amino-16-fluoro-5,19-dimethyl-10-(trifluoromethyl)-20-oxa-4,5,11,12,23-pentaazapentacyclo[19.3.1.0^2,^6.0^8,^12.0^13,^18]pentacosa-1(24),2(6),3,8,10,13,15,17,21(25),22-decaene-3-carbonitrile]: the TPM3-NTRK1-wt/CD74-ROS1-G2032R result is “A (bin A for very high selectivity, ratio>30-fold)”; the TPM3-NTRK1-wt/CD74-ROS1-wt result is recorded as “A (bin A for very high selectivity, ratio>30-fold)”; the TPM3-NTRK1-wt/EML4-ALK-L1196M-G1202R result is given as “C (bin C for moderate selectivity, ratio≥1)”; the TPM3-NTRK1-wt/EML4-ALK-wt result is “A (bin A for very high selectivity, ratio>30-fold)”.
Regarding `C[C@H]1Oc2cc(cnc2N)-c2c(C#N)nn(C)c2Cc2cc(F)cnc2-c2ccc(F)cc21` [Example 105, (20R)-23-amino-10,17-difluoro-5,20-dimethyl-21-oxa-4,5,12,24-tetraazapentacyclo[20.3.1.0^2,^6.0^8,^13.0^14,^19]hexacosa-1(25),2(6),3,8(13),9,11,14,16,18,22(26),23-undecaene-3-carbonitrile], the TPM3-NTRK1-wt/CD74-ROS1-G2032R entry was “A (bin A for very high selectivity, ratio>30-fold)”; the TPM3-NTRK1-wt/CD74-ROS1-wt result is reported as “A (bin A for very high selectivity, ratio>30-fold)”; the TPM3-NTRK1-wt/EML4-ALK-L1196M-G1202R result was “B (bin B for high selectivity, ratio>10-fold)”; the TPM3-NTRK1-wt/EML4-ALK-wt result is “A (bin A for very high selectivity, ratio>30-fold)”.

For the origin of these results see US11667649B2, “Heteroaromatic macrocyclic ether chemotherapeutic agents” (Nuvalent, Inc., priority 2020, dated 2023).
